Data on three molecules can be found in US20060105967A1, “Flavone derivatives as TNFalpha inhibitors or antagonists” (Advanced Gene Technology, Corp., priority 2004, published 2006).

The subject of data set [1] is rats with collagen-induced arthritis. The experiment in a line: Anti-inflammatory effect on rats with collagen-induced arthritis. The note with it: for decreased percentage of edema: IP. It counts as in vivo, rat. An excerpt:
SD rats of SPF grade were supplied from BioLasco. Prior to performing the study, the animals were accommodated for 4 days after being received. Weighing, blood sampling, measuring the paw volumes and other related records for each animal were established. The rats were immunized and boosted with bovine collagen II-EFA (Incomplete Freund's Adjuvant, from Sigma) to induce arthritis (CIA). The CIA rats were grouped into 6 groups and daily injected with the drug candidates (myricitrin and quercetin-3-D-glucoside respectively). Dexamethasone (0.2 mg) was used as a positive control and 5% ethanol as a negative control. Treatment period was 7 days. Body weight and paw volumes were measured and blood sampling were collected at day 0, 3, 6, 10 and 14.
Six days after the final dosing, all the animals were sacrificed. The affected hind limbs were removed for histological assessment. The parameters of body weights and paw volumes were measured and compared for before, during and after treatment with drug candidates.

The next data set has as its target T1, TNFα (Homo sapiens, UniProt P01375).
T1 construct: purchased
The experiment in a line: L929 cell proliferation/cytotoxicity assay, TNFα activity assay. It counts as cell-based. As for the experimental part: (§1) L929 cells were cultured in Eagle's Minimal Essential Medium (MEM) containing 10% equine serum, 1% P/S and 1% non-essential amino acid. Confluent L929 cells were washed with 2 ml PBS (phosphate-buffered saline) solution and then trypsinized with 1 ml 1×trypsin, followed by resuspending in complete medium. Two hundred microliter of cell suspension was aspirated for cell density counting. […]. Add 100 μl of cell suspension to each well in 96-well flat-bottomed microtitre plates and incubated for 24 hrs in 5% CO2 atmosphere at 37° C. incubator.
Crude herbal extracts were resuspended in 1×PBS and sterilized with 0.22 μm filters. Varying concentrations of herbal extract were incubated for 1 hr with equal volume of commercial TNFα 0.2 ng/ml. Before the end of the 1 hr pre-incubation, removing the medium from the 24 hr incubated 96-well plate, and added a 50 μl fresh medium containing 4 μg/ml of Actinomycin D into the 96-well plate. Transferred the 50 μl of pre-incubated mixture of herbal extraction and TNFα to the 96-well plate with the medium containing Act D to give the final concentration of Act D (2 μg/ml), TNFα(0.1 ng/ml). […]
The same samples as those for TNFα activity assay were added to the 96-well plate with the medium containing Act D to give the final concentration of Act D 2 μg/ml. […] Read with ELISA (enzyme-linked immunosorbent assay) reader at O.D (optical density) 490/630 nm. […]

Another data set has as its system L929 cells. The data set is described as follows: Cytotoxicity in L929 cells (XTT). It counts as cell-based. Particulars: Act D 2 μg/ml, 24 hrs. The protocol:
as §1
The same samples as those for TNFα activity assay were added to the 96-well plate with the medium containing Act D to give the final concentration of Act D 2 μg/ml. Mixed well by gently shaking and then incubated for 24 hrs in 5% CO2 atmosphere at 37° C. incubator. 50 μl XTT mixture (XTT−1: XTT−2=50:1) was added to each well, and incubated in a CO2 incubator for 4 hrs. Read with ELISA (enzyme-linked immunosorbent assay) reader at O.D (optical density) 490/630 nm. […]. Quercitrin and Myricitrin Identification (1) Thin-Layer Chromatography
A general note: Formazan colour is commonly taken as a measure of viable cells.

Where [2] appears, read: CIA rats, 3rd day after treatment stopped (T4).
Setting [3] is: CIA rats, 7th day after treatment stopped (T5).

T1 sequence (P01375 77-233 limits assumed, species assumed): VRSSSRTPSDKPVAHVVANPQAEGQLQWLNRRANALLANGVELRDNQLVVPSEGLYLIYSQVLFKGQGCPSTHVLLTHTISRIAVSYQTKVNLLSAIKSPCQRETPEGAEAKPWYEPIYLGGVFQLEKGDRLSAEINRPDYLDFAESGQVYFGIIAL

In the case of `C[C@@H]1C[C@H]2[C@@H]3CCC4=CC(=O)C=C[C@]4(C)[C@@]3(F)[C@@H](O)C[C@]2(C)[C@@]1(O)C(=O)CO` [dexamethasone, reference compound], the “decreased percentage of edema” value is listed as 28.21% in data set [1] (setting [2]) and 29.97% in data set [1] (setting [3]).
The term IC50 denotes the concentration at which inhibition is half-maximal. The low end stands for greater potency in that assay, the high end for weaker potency in that assay. In the case of `O=c1c(O[C@@H]2O[C@H](CO)[C@@H](O)[C@H](O)[C@H]2O)c(-c2ccc(O)c(O)c2)oc2cc(O)cc(O)c12` [quercetin-3-D-glucoside], the IC50 at TNFα was determined as 95.7 µM. For the same molecule, the “histopathological changes of joint” value in data set [1] (CIA rats treated (IP), hind limbs removed six days after final dosing) was “proliferation of synovial ling cell and infiltration of lymphocytes was shown”. Moreover, the “decreased percentage of edema” value was determined as 24.93% in data set [1] (setting [2]) and 80.47% in data set [1] (setting [3]). The “decreased percentage of edema volumes for hind paws” value in data set [1] (CIA rats, daily injection (IP), treatment period / day 6 of treatment (T3), vs non-treatment paw volume) is 8.59%.
As to `C[C@@H]1O[C@@H](Oc2c(-c3ccc(O)c(O)c3)oc3cc(O)cc(O)c3c2=O)[C@H](O)[C@H](O)[C@H]1O` [quercitrin], the cell cytotoxicity entry in the data set on L929 cells is reported as “without cell cytotoxicity”. Besides, the IC50 against TNFα amounted to 161 µM.
